Read-outs that look alike come from different tables or passages of the source.
How the values were obtained:
[1] = test system: panel of 78 cancer cell lines; assay: Cell panel 3D methylcellulose CellTiter-Glo proliferation; type: cell-based; conditions: Homo sapiens
Method: A panel of 78 cancer cell lines harboring mutant and wild-type RAS was selected for screening at Crown Bioscience (Supplementary Table S2). The panel consisted of cell lines with any substitution at position 12 of KRAS, cell lines with any substitutions at position 61 of NRAS, and cell lines with a BRAF^V600E mutation. […] Cells were incubated for 120 hours prior to measurement of adenosine triphosphate (ATP) levels using the CellTiter-Glo Luminescent Cell Viability Assay (CTG; Promega, G7572), a method of determining the number of metabolically active cells based on quantitation of cellular ATP, according to the manufacturer's instructions. To measure induction of apoptosis, cells were incubated with RMC-6236 for 48 hours prior to measuring cleavage of a proluminescent caspase-3/7 DEVD-aminoluciferin substrate using the CaspaseGlo-3/7 Assay (Promega, G8092) according to the manufacturer’s instructions.

eCT26 syngeneic tumors = assay: Flow-cytometric analysis of tumor microenvironment; type: in vivo, mouse
Method: For the TME analysis, tumor tissue was collected 24 hours post the last dose after 4 days of treatment with vehicle or RMC-6236 and was processed for flow-cytometric analysis. […] For the RMC-6236–treated group, the tumor average on day 0 was 445 ± 163 mm^3, and it regressed by day 4 to 71 ± 32 mm^3. Tumor tissue was minced, processed with the Dri Tumor & Tissue Dissociation Reagent from BD Biosciences and homogenized with the gentleMACS Dissociator. Tumor cell suspensions were incubated at 4°C for 30 minutes with Mouse BD Fc Block (Clone 2.4G2 from BD Pharmingen), 10 minutes with Blue Dead Cell Stain Kit (from Invitrogen) and 30 minutes in cell staining buffer. […] Cells were analyzed on a 4-laser Cytek Aurora (Cytek Biosciences), and data analysis was done using SpectroFlo (Cytek Biosciences) and FlowJo (FlowJo LLC).

`CCn1c(-c2cc(N3CCN(C)CC3)cnc2[C@H](C)OC)c2c3cc(ccc31)-c1csc(n1)C[C@H](NC(=O)[C@H]1C[C@@H]1C)C(=O)N1CCC[C@H](N1)C(=O)OCC(C)(C)C2` [RMC-6236] gave an EC50 ([1]; A549, A549, KRAS G12S, Lung, read-out: Proliferation Inhibition (EC50)) of 54.6 nM, an EC50 ([1]; A-375, A375, BRAF V600E, Skin, read-out: Proliferation Inhibition (EC50)) greater than 100 nM and an EC50 ([1]; A-427, A427, KRAS G12D, Lung, read-out: Proliferation Inhibition (EC50)) of 97.6 nM. It also gave an EC50 ([1]; AGS, KRAS G12D, Stomach, read-out: Proliferation Inhibition (EC50)) of 3.2 nM, an EC50 ([1]; ASH3, NRAS Q61R, Head and Neck/Thyroid, read-out: Proliferation Inhibition (EC50)) of 91.4 nM and an EC50 ([1]; ASPC1, ASPC1, KRAS G12D, Pancreas, read-out: Proliferation Inhibition (EC50)) of 6.9 nM. For the same molecule, the EC50 ([1]; CAL-62, CAL62, KRAS G12R, Head and Neck/Thyroid, read-out: Proliferation Inhibition (EC50)) was 19 nM, the EC50 ([1]; CAPAN-1, CAPAN1, KRAS G12V, Pancreas, read-out: Proliferation Inhibition (EC50)) was 4.6 nM and the EC50 ([1]; CFPAC-1, CFPAC1, KRAS G12V, Pancreas, read-out: Proliferation Inhibition (EC50)) was 15.2 nM. For the same molecule, the EC50 ([1]; CHP-212, CHP212, NRAS Q61K, Brain and Nerves, read-out: Proliferation Inhibition (EC50)) was 21.9 nM, the EC50 ([1]; COLO 201, COLO201, BRAF V600E, Intestine/Large/Colorectum, read-out: Proliferation Inhibition (EC50)) was greater than 100 nM and the EC50 ([1]; COR-L23, CORL23, KRAS G12V, Lung, read-out: Proliferation Inhibition (EC50)) was 8.6 nM. It also gave an EC50 ([1]; Calu-1, CALU1, KRAS G12C, Lung, read-out: Proliferation Inhibition (EC50)) of 2.1 nM, an EC50 ([1]; Capan-2, CAPAN2, KRAS G12V, Pancreas, read-out: Proliferation Inhibition (EC50)) of 5.8 nM and an EC50 ([1]; CoC1, COC1, KRAS G12D, Ovary, read-out: Proliferation Inhibition (EC50)) of 57.1 nM. For the same molecule, the EC50 ([1]; HCC15, HCC15, NRAS Q61K, Lung, read-out: Proliferation Inhibition (EC50)) was greater than 100 nM, the EC50 ([1]; HCC44, HCC44, KRAS G12C, Lung, read-out: Proliferation Inhibition (EC50)) was 3.3 nM and the EC50 ([1]; HEC-1-A, HEC1A, KRAS G12D, Uterus, read-out: Proliferation Inhibition (EC50)) was 44.8 nM. For the same molecule, the EC50 ([1]; HM7, KRAS G12D, Intestine/Large/Colorectum, read-out: Proliferation Inhibition (EC50)) was greater than 100 nM, the EC50 ([1]; HPAC, KRAS G12D, Pancreas, read-out: Proliferation Inhibition (EC50)) was 74.3 nM and the EC50 ([1]; HPAF-II, HPAFII, KRAS G12D, Pancreas, read-out: Proliferation Inhibition (EC50)) was 6.3 nM. It also gave an EC50 ([1]; HT-1080, HT1080, NRAS Q61K, Soft tissue, read-out: Proliferation Inhibition (EC50)) of 7.5 nM, an EC50 ([1]; HepG2, HEPG2, NRAS Q61L, Liver, read-out: Proliferation Inhibition (EC50)) of 22.8 nM and an EC50 ([1]; HuCCT-1, HUCCT1, KRAS G12D, Liver/Bile duct, read-out: Proliferation Inhibition (EC50)) of 25.7 nM. It also gave an EC50 ([1]; HuP-T4, HUPT4, KRAS G12V, Pancreas, read-out: Proliferation Inhibition (EC50)) of 19 nM, an EC50 ([1]; KP4, KRAS G12D, Pancreas, read-out: Proliferation Inhibition (EC50)) of 31.1 nM and an EC50 ([1]; KRAS^G12X cells, read-out: median EC50, cell growth inhibition) of 8 nM. The EC50 ([1]; KYSE-410, KYSE410, KRAS G12C, HN/Esophagus, read-out: Proliferation Inhibition (EC50)) was 63.2 nM, the EC50 ([1]; LCLC-97TM1, LCLC97TM1, KRAS G12V, Lung, read-out: Proliferation Inhibition (EC50)) was 1.1 nM and the EC50 ([1]; LS174T, KRAS G12D, Intestine/Large/Colorectum, read-out: Proliferation Inhibition (EC50)) was greater than 100 nM. The EC50 ([1]; LS180, LS180, KRAS G12D, Intestine/Large/Colorectum, read-out: Proliferation Inhibition (EC50)) was 87.1 nM, the EC50 ([1]; LS-123, LS123, KRAS G12S, Intestine/Large/Colorectum, read-out: Proliferation Inhibition (EC50)) was 3.8 nM and the EC50 ([1]; LS-513, LS513, KRAS G12D, Intestine/Large/Colorectum, read-out: Proliferation Inhibition (EC50)) was 7.1 nM. For the same molecule, the EC50 ([1]; MIA PaCa-2, MIAPACA2, KRAS G12C, Pancreas, read-out: Proliferation Inhibition (EC50)) was 61.8 nM, the EC50 ([1]; NCI-H23, NCIH23, KRAS G12C, Lung, read-out: Proliferation Inhibition (EC50)) was 7.1 nM and the EC50 ([1]; NCI-H358, NCIH358, KRAS G12C, Lung, read-out: Proliferation Inhibition (EC50)) was 3.9 nM. It also gave an EC50 ([1]; NCI-H441, NCIH441, KRAS G12V, Lung, read-out: Proliferation Inhibition (EC50)) of 2.6 nM, an EC50 ([1]; NCI-H727, NCIH727, KRAS G12V, Lung, read-out: Proliferation Inhibition (EC50)) of 4.2 nM and an EC50 ([1]; NCI-H1299, NCIH1299, NRAS Q61K, Lung, read-out: Proliferation Inhibition (EC50)) of 26.3 nM. For the same molecule, the EC50 ([1]; NCI-H1373, NCIH1373, KRAS G12C, Lung, read-out: Proliferation Inhibition (EC50)) was 5.2 nM, the EC50 ([1]; NCI-H1792, NCIH1792, KRAS G12C, Lung, read-out: Proliferation Inhibition (EC50)) was 7.4 nM and the EC50 ([1]; NCI-H2009, NCIH2009, KRAS G12A, Lung, read-out: Proliferation Inhibition (EC50)) was 19.3 nM. It also gave an EC50 ([1]; NCI-H2087, NCIH2087, NRAS Q61K, Lung, read-out: Proliferation Inhibition (EC50)) of 4 nM, an EC50 ([1]; NCI-H2122, NCIH2122, KRAS G12C, Lung, read-out: Proliferation Inhibition (EC50)) of 6.7 nM and an EC50 ([1]; NOZ, KRAS G12V, Liver/Bile duct, read-out: Proliferation Inhibition (EC50)) of 33.1 nM. It also gave an EC50 ([1]; NRAS^Q61X cells, read-out: median EC50, cell growth inhibition) of 22 nM, an EC50 ([1]; OVCAR-5, OVCAR5, KRAS G12V, Ovary, read-out: Proliferation Inhibition (EC50)) of 2 nM and an EC50 ([1]; PANC-1, PANC1, KRAS G12D, Pancreas, read-out: Proliferation Inhibition (EC50)) of 1.4 nM. The EC50 ([1]; PANC-03-27, PANC0327, KRAS G12V, Pancreas, read-out: Proliferation Inhibition (EC50)) was 1 nM, the EC50 ([1]; PL45, PL45, KRAS G12D, Pancreas, read-out: Proliferation Inhibition (EC50)) was 86.5 nM and the EC50 ([1]; Panc 05.04, PANC0504, KRAS G12D, Pancreas, read-out: Proliferation Inhibition (EC50)) was 6.1 nM. It also gave an EC50 ([1]; Panc1005, PANC1005, KRAS G12D, Pancreas, read-out: Proliferation Inhibition (EC50)) of 27.1 nM, an EC50 ([1]; RBE, KRAS G12V, Liver/Bile duct, read-out: Proliferation Inhibition (EC50)) of 5.8 nM and an EC50 ([1]; RKO*, BRAF V600E, Intestine/Large/Colorectum, read-out: Proliferation Inhibition (EC50)) greater than 100 nM. It also gave an EC50 ([1]; SHP77, SHP77, KRAS G12V, Lung, read-out: Proliferation Inhibition (EC50)) greater than 100 nM, an EC50 ([1]; SK-CO-1, SKCO1, KRAS G12V, Intestine/Large/Colorectum, read-out: Proliferation Inhibition (EC50)) of 3 nM and an EC50 ([1]; SK-LU-1, SKLU1, KRAS G12D, Lung, read-out: Proliferation Inhibition (EC50)) of 6 nM. It also gave an EC50 ([1]; SK-MEL-2, SKMEL2, NRAS Q61R, Skin, read-out: Proliferation Inhibition (EC50)) of 38.8 nM, an EC50 ([1]; SK-N-AS, SKNAS, NRAS Q61K, Brain and Nerves, read-out: Proliferation Inhibition (EC50)) of 8.3 nM and an EC50 ([1]; SK-N-SH, SKNSH, NRAS Q61K, Brain and Nerves, read-out: Proliferation Inhibition (EC50)) greater than 100 nM. For the same molecule, the EC50 ([1]; SNU1, SNU1, KRAS G12D, Stomach, read-out: Proliferation Inhibition (EC50)) was 13 nM, the EC50 ([1]; SNU719, NRAS Q61L, Stomach, read-out: Proliferation Inhibition (EC50)) was 32.2 nM and the EC50 ([1]; SNU-387, SNU387, NRAS Q61K, Liver, read-out: Proliferation Inhibition (EC50)) was 9.2 nM. For the same molecule, the EC50 ([1]; SNU-601, SNU601, KRAS G12D, Stomach, read-out: Proliferation Inhibition (EC50)) was 26.2 nM, the EC50 ([1]; SNUC2A, KRAS G12D, Intestine/Large/Colorectum, read-out: Proliferation Inhibition (EC50)) was greater than 100 nM and the EC50 ([1]; SU.86.86, SU8686, KRAS G12D, Pancreas, read-out: Proliferation Inhibition (EC50)) was 20.2 nM. The EC50 ([1]; SW480, SW480, KRAS G12V, Intestine/Large/Colorectum, read-out: Proliferation Inhibition (EC50)) was 5.1 nM, the EC50 ([1]; SW626, SW626, KRAS G12V, Ovary, read-out: Proliferation Inhibition (EC50)) was 3.8 nM and the EC50 ([1]; SW756, SW756, KRAS G12C, Ovary, read-out: Proliferation Inhibition (EC50)) was 26.9 nM. The EC50 ([1]; SW837, SW837, KRAS G12C, Intestine/Large/Colorectum, read-out: Proliferation Inhibition (EC50)) was 18.8 nM, the EC50 ([1]; SW900, SW900, KRAS G12V, Lung, read-out: Proliferation Inhibition (EC50)) was 3.1 nM and the EC50 ([1]; SW 1116, SW1116, KRAS G12A, Intestine/Large/Colorectum, read-out: Proliferation Inhibition (EC50)) was 70.9 nM. The EC50 ([1]; SW1271, SW1271, NRAS Q61R, Lung, read-out: Proliferation Inhibition (EC50)) was 4.6 nM, the EC50 ([1]; SW1463, SW1463, KRAS G12C, Intestine/Large/Colorectum, read-out: Proliferation Inhibition (EC50)) was 20.4 nM and the EC50 ([1]; SW1573, SW1573, KRAS G12C, Lung, read-out: Proliferation Inhibition (EC50)) was greater than 100 nM. The EC50 ([1]; SW1990, SW1990, KRAS G12D, Pancreas, read-out: Proliferation Inhibition (EC50)) was 6.7 nM, the EC50 ([1]; SW-403, SW403, KRAS G12V, Intestine/Large/Colorectum, read-out: Proliferation Inhibition (EC50)) was 3.5 nM and the EC50 ([1]; SW-620, SW620, KRAS G12V, Intestine/Large/Colorectum, read-out: Proliferation Inhibition (EC50)) was 2.7 nM. For the same molecule, the EC50 ([1]; UMUC3, UMUC3, KRAS G12C, Bladder, read-out: Proliferation Inhibition (EC50)) was 2.6 nM, the EC50 ([1]; YCC2, KRAS G12S, Stomach, read-out: Proliferation Inhibition (EC50)) was 22.9 nM and the EC50 ([1]; all three BRAF^V600E mutant cells, read-out: resistance to growth inhibition) was greater than 100 nM. For the same molecule, the “tumor volume average on day 4” value (eCT26 syngeneic tumors; 4 days of treatment, day 0 average 445 ± 163 mm^3) was 71 ± 32 mm^3, the “monocytic and granulocytic myeloid-derived suppressor cells and M2 macrophages” value (eCT26 syngeneic tumors; after 4 days of 25 mg/kg po qd) was “decreased” and the “CD4^+ and CD8^+ T cells in the tumor microenvironment” value (eCT26 syngeneic tumors; after 4 days of 25 mg/kg po qd, relative to vehicle) was “significant increase”.
